From the supplement of paper PMC10883282 come the findings set out here.

± gives the standard deviation of the averaged measurements.

This test relates to A204. Put plainly: relative viability vs DMSO control (72 h) (fraction); higher = more viable cells. A digest of the protocol:
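After seeding at densities set for 80–90% confluence in 384-well plates, sarcoma cell lines waited 24 h before 2.5 µl of serially diluted compound was added. Source plates held 10 mM down to 0.0002 mM. Plates were incubated 72 h at 37 °C with 5% CO2, with 0.1% DMSO vehicle and a 5 µM positive control, and relative viability was taken from ATPLite as percent growth averaged over up to triplicate wells, with 1 set as full and 0 as none.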

Take `COc1c(OCCCN2CCOCC2)ccc2c1N=C(NC(=O)c1cnc(N)nc1)N1CCN=C21` [Copanlisib]: the relative viability is, setting by setting: (0.00017 µM) 1.05 ± 0.035; (0.00051 µM) 1.01 ± 0.07; (0.00152 µM) 0.927 ± 0.023; (0.00457 µM) 0.711 ± 0.055; (0.01372 µM) 0.583 ± 0.037; (0.04115 µM) 0.481 ± 0.049. Besides, the relative viability (0.1235 µM) was determined as 0.399 ± 0.05; the relative viability (0.3704 µM) was determined as 0.316 ± 0.027; the relative viability (1.111 µM) was determined as 0.268 ± 0.018; the relative viability (3.333 µM) was determined as 0.235 ± 0.019; the relative viability (10 µM) was found to be 0.211 ± 0.038.
Turning to `CN1CCN(c2ccc3nc(-c4c(N)c5c(F)cccc5[nH]c4=O)[nH]c3c2)CC1` [Dovitinib], the relative viability by setting is: (0.00017 µM) 1.1 ± 0.031; (0.00051 µM) 1.06 ± 0.031; (0.00152 µM) 1.06 ± 0.064; (0.00457 µM) 1.07 ± 0.046; (0.01372 µM) 1.01 ± 0.052; (0.04115 µM) 1.03 ± 0.056. The relative viability worked out at 0.907 ± 0.1 (0.1235 µM); 0.771 ± 0.029 (0.3704 µM); 0.355 ± 0.054 (1.111 µM); 0.0814 ± 0.011 (3.333 µM); 0.0143 ± 0.0029 (10 µM).
Consider `COCc1c(-c2cc3cc(C)cc(OC)c3s2)c2c(N)ncnn2c1CN1CCNC(=O)C1` [Rogaratinib], for which the relative viability turned out to be 1.09 ± 0.039 (0.00017 µM); 1.07 ± 0.069 (0.00051 µM); 1.09 ± 0.036 (0.00152 µM); 1.08 ± 0.019 (0.00457 µM); 1.05 ± 0.039 (0.01372 µM); 0.95 ± 0.058 (0.04115 µM). The relative viability by setting is: (0.1235 µM) 0.827 ± 0.048; (0.3704 µM) 0.631 ± 0.043; (1.111 µM) 0.548 ± 0.008; (3.333 µM) 0.44 ± 0.014; (10 µM) 0.268 ± 0.025.
With `CN1CCC(COc2cnc(-c3cccc(Cn4nc(-c5cccc(C#N)c5)ccc4=O)c3)nc2)CC1` [Tepotinib], the relative viability (0.00017 µM) was 1.11 ± 0.052; the relative viability (0.00051 µM) was 1.09 ± 0.052; the relative viability (0.00152 µM) was found to be 1.1 ± 0.044; the relative viability (0.00457 µM) amounted to 1.09 ± 0.059; the relative viability (0.01372 µM) is 1.08 ± 0.043; the relative viability (0.04115 µM) stood at 1.05 ± 0.012. The relative viability by setting is: (0.1235 µM) 1.09 ± 0.047; (0.3704 µM) 1.05 ± 0.03; (1.111 µM) 1.07 ± 0.083; (3.333 µM) 1.06 ± 0.073; (10 µM) 0.76 ± 0.054.
